{
  "source": "patent US20230064324A1",
  "about": "“NEW USES FOR STEVIOL” (SUNTORY HOLDINGS LIMITED, priority 2019, published 2023)",
  "key": {"[1]": {"tested_on": "CHOP", "experiment": "CHOP expression in pancreatic cells (βTC6) under endoplasmic reticulum stress (RT-PCR)", "format": "cell-based, Mouse", "details": "pretreatment 4 h, tunicamycin 0.16 μM 24 h", "method": "(§1) The lysate was preserved at −80° C. until use.\n(§2) The internal standard gene used was GAPDH gene."}, "[2]": {"tested_on": "CHOP", "experiment": "CHOP expression in adipocytes under endoplasmic reticulum stress (RT-PCR)", "format": "cell-based, Human", "details": "pretreatment 24 h, tunicamycin 0.65 μM 24 h", "method": "(§3) Adipocytes were prepared as follows. Normal human subcutaneous preadipocytes were reconstituted in a T75 flask using a growth medium (PBM-2 medium, Cat. No. PT-8002, Lonza, supplemented with 10% FBS, 2 mM L-glutamine, 50 μg/mL gentamycin, and 37 ng/mL amphotericin-B), and precultured for 3 days in a CO2 incubator (37° C., 5% CO2; the same holds true for the description below).\nas §1, §2"}, "[3]": {"tested_on": "endoplasmic reticulum stress markers CHOP and GRP78", "experiment": "Endoplasmic reticulum stress-suppressing effect in each type of cell (markers CHOP and GRP78), overall statement", "format": "cell-based", "details": "neuronal cells, adipocytes, hepatocytes, pancreatic cells; tunicamycin-induced; CHOP and GRP78 as index", "method": "Steviol was evaluated for its influence on endoplasmic reticulum stress in each type of cell by using endoplasmic reticulum stress markers CHOP and GRP78 as an index. The test cells used were neuronal cells (induced from PC12 cells), adipocytes (normal human subcutaneous preadipocytes, Cat. No. PT-5020, Lonza Group AG), hepatocytes (HepG2, Cat. No. JCRB1054, JCRB) and pancreatic cells (βTC6, ATCC® CRL-11506).\n4PA (P21005, Sigma-Aldrich Co., LLC) was dissolved in a medium and then added at a predetermined concentration to a differentiation medium or a growth medium.\nAfter the completion of endoplasmic reticulum stress induction treatment, the expression levels of CHOP and GRP78 were measured to evaluate the degree of endoplasmic reticulum stress. First, FasteLane lysate (RNA) was prepared for RNA extraction using FastLane Cell Probe kit (Cat. No. 216413, Qiagen N.V.). After removal of the medium, each well was washed by the addition of 125 μL of Buffer FCW and its immediate removal. Then, 50 μL of Cell processing mix was added to each well, followed by incubation at room temperature for 5 minutes to prepare FasteLane lysate. […]\nRT-PCR reaction was performed under conditions of 50° C. for 30 minutes, 95° C. for 15 minutes, and (94° C. for 15 seconds and 60° C. for 60 seconds)×40 cycles. […] A relative expression level was calculated by the ΔΔCt method. […]"}, "[4]": {"tested_on": "neuronal cells (induced from PC12 cells)", "experiment": "Cell-protecting effect against tunicamycin-induced endoplasmic reticulum stress (WST-8)", "details": "1 μM tunicamycin", "quoted_text": "PC12 cells were precultured using the growth medium in a same manner as Example 3. The cells were detached using 0.25% trypsin-EDTA, seeded at 5,000 cells/100 μL/well to a collagen IV-coated 96-well plate (Cat. No. 354429, Corning) using the growth medium, and cultured overnight in a CO2 incubator. On the next day, the medium was replaced with 100 μL of the differentiation medium, and the cells were cultured for 2 days in a CO2 incubator to induce their differentiation into neuronal cells. […] IGF-1 (Cat. No. SRP4121, Sigma-Aldrich Co., LLC) was dissolved at 100 μg/mL in Nuclease Free Water and then added at 100 ng/mL to the differentiation medium.\nAfter the completion of endoplasmic reticulum stress induction treatment, viable cell count measurement was performed by the WST-8 method to evaluate damage on the cells by endoplasmic reticulum stress. Specifically, the medium of each well after culture was replaced with 200 μL of a differentiation medium supplemented with a 1/10 amount of viable cell count measurement reagent SF, and the cells were incubated in a CO2 incubator. 30 minutes later and 90 minutes later, absorbance (450 nm, reference wavelength: 630 nm) was measured using a plate reader (VARIOSKAN FLASH, Thermo Fisher Scientific Inc.), and absorbance difference per 60 minutes was regarded as a relative viable cell count."}, "[5]": {"tested_on": "GRP78", "experiment": "GRP78 expression in neuronal cells under endoplasmic reticulum stress (RT-PCR)", "format": "cell-based, Rat", "details": "pretreatment 24 h, tunicamycin 1.0 μM 24 h", "method": "(§4) Neuronal cells were prepared as follows. PC12 cells were reconstituted by seeding at 2×10^6 cells/flask to a collagen IV-coated flask, and precultured for 3 days in the growth medium in a CO2 incubator.\nas §1, §2"}, "[6]": {"tested_on": "CHOP", "experiment": "CHOP expression in neuronal cells under endoplasmic reticulum stress (RT-PCR)", "format": "cell-based, Rat", "details": "pretreatment 1 h, tunicamycin 0.16 μM 24 h", "method": "as §4, §1, §2"}, "[7]": {"tested_on": "PC12 cells (clone HS)", "experiment": "Neurite elongation-promoting effect on PC12 cells (neurite length per cell, Operetta CLS)", "format": "cell-based, Rat", "details": "for Relative neurite length (%): 3 days, negative control=100%", "method": "PC12 cells (clone HS) were precultured using a growth medium in the same manner as in Example 1. […] The cells thus cultured were subjected to cell membrane staining using Cell Membrane Stain attached to Neurite Outgrowth Staining Kit (Thermo Fisher Scientific Inc.) and nuclear staining using Hoechst 33342 (Cat. No. H3570). Specifically, the medium was replaced with 100 μL of a fixative and staining solution (prepared by adding a 1/1000 amount each of Cell Membrane Stain (1000×) and Hoechst 33342 and a 1/25 amount of a formaldehyde solution (Cat. No. 061-00416, FUJIFILM Wako Pure Chemical Corp.) to DPBS (++) (Cat. No. 14040133, Thermo Fisher Scientific Inc.)), followed by incubation for 20 minutes in a CO2 incubator (5% CO2, 37° C., humid). […] Photographing and quantitative analysis were carried out using Operetta CLS (Perkin Elmer, Inc.), and a neurite length per cell was calculated. Nine fields of view at the center of each well were photographed using a 10× objective lens. A test medium supplemented with 50 ng/mL NGF was used as a positive control, and a vehicle control composed of a differentiation medium supplemented with 0.1% DMSO (final concentration) was used as a negative control."}, "[8]": {"tested_on": "GRP78", "experiment": "GRP78 expression in adipocytes under endoplasmic reticulum stress (RT-PCR)", "format": "cell-based, Human", "details": "pretreatment 24 h, tunicamycin 0.65 μM 24 h", "method": "as §3, §1, §2"}, "[9]": {"tested_on": "neuronal cells (induced from PC12 cells)", "experiment": "Cytotoxicity of steviol to neuronal cells (differentiated PC12, WST-8)", "format": "cell-based, Rat", "details": "for Relative viable cell count (%): 2 days, differentiated PC12, Control=100%", "from_the_text": "PC12 cells (Cat. No. 88022401, ECACC) were precultured in a collagen IV-coated flask using the growth medium. […] A vehicle control composed of a test medium supplemented with 0.1% DMSO (final concentration) was used as a negative control."}},
  "data": [
    {"smiles": "C=C1C[C@@]23CC[C@H]4[C@@](C)(CCC[C@@]4(C)C(=O)O)[C@@H]2CC[C@]1(O)C3", "note": "[Steviol]", "values": [
      {"measurement": "Expression level of CHOP in pancreatic cells (relative to GAPDH, untreated=1)", "setting": "[1]; steviol 6.25 μg/mL", "result": 2.56},
      {"measurement": "Expression level of CHOP in pancreatic cells (relative to GAPDH, untreated=1)", "setting": "[1]; steviol 12.5 μg/mL", "result": 2.46},
      {"measurement": "Expression level of CHOP in pancreatic cells (relative to GAPDH, untreated=1)", "setting": "[1]; steviol 25 μg/mL", "result": 2.21},
      {"measurement": "Expression level of CHOP in pancreatic cells (relative to GAPDH, untreated=1)", "setting": "[1]; steviol 50 μg/mL", "result": 2.25},
      {"measurement": "Expression level of CHOP in adipocytes (relative to GAPDH, untreated=1)", "setting": "[2]; steviol 6.25 μg/mL", "result": 3.49},
      {"measurement": "Expression level of CHOP in adipocytes (relative to GAPDH, untreated=1)", "setting": "[2]; steviol 12.5 μg/mL", "result": 3.23},
      {"measurement": "Expression level of CHOP in adipocytes (relative to GAPDH, untreated=1)", "setting": "[2]; steviol 25 μg/mL", "result": 3.15},
      {"measurement": "Expression level of CHOP in adipocytes (relative to GAPDH, untreated=1)", "setting": "[2]; steviol 50 μg/mL", "result": 3.17},
      {"measurement": "endoplasmic reticulum stress (in words)", "setting": "[3]", "result": "suppressed endoplasmic reticulum stress in each type of cell in a concentration-dependent manner"},
      {"measurement": "adverse effect of endoplasmic reticulum stress on cells (in words)", "setting": "[4]", "result": "suppressed an adverse effect of endoplasmic reticulum stress on cells in a concentration-dependent manner"},
      {"measurement": "Expression level of GRP78 in neuronal cells (relative to GAPDH, untreated=1)", "setting": "[5]; steviol 6.25 μg/mL", "result": 23.31},
      {"measurement": "Expression level of GRP78 in neuronal cells (relative to GAPDH, untreated=1)", "setting": "[5]; steviol 12.5 μg/mL", "result": 23.00},
      {"measurement": "Expression level of GRP78 in neuronal cells (relative to GAPDH, untreated=1)", "setting": "[5]; steviol 25 μg/mL", "result": 21.84},
      {"measurement": "Expression level of GRP78 in neuronal cells (relative to GAPDH, untreated=1)", "setting": "[5]; steviol 50 μg/mL", "result": 20.15},
      {"measurement": "Expression level of CHOP in neuronal cells (relative to GAPDH, untreated=1)", "setting": "[6]; steviol 6.25 μg/mL", "result": 6.61},
      {"measurement": "Expression level of CHOP in neuronal cells (relative to GAPDH, untreated=1)", "setting": "[6]; steviol 12.5 μg/mL", "result": 6.55},
      {"measurement": "Expression level of CHOP in neuronal cells (relative to GAPDH, untreated=1)", "setting": "[6]; steviol 25 μg/mL", "result": 6.24},
      {"measurement": "Expression level of CHOP in neuronal cells (relative to GAPDH, untreated=1)", "setting": "[6]; steviol 50 μg/mL", "result": 5.79},
      {"measurement": "neurite elongation (in words)", "setting": "[7]; PC12 cells, varying concentrations of steviol", "result": "promoted neurite elongation in a concentration-dependent manner"},
      {"measurement": "Relative neurite length (%)", "setting": "[7]; steviol 12.5 μg/mL", "result": 133.3, "unit": "%"},
      {"measurement": "Relative neurite length (%)", "setting": "[7]; steviol 25 μg/mL", "result": 180.9, "unit": "%"},
      {"measurement": "Relative neurite length (%)", "setting": "[7]; steviol 50 μg/mL", "result": 235.2, "unit": "%"},
      {"measurement": "Relative neurite length (%)", "setting": "[7]; steviol 100 μg/mL", "result": 307.7, "unit": "%"},
      {"measurement": "Relative neurite length (%)", "setting": "[7]; steviol 200 μg/mL", "result": 308.6, "unit": "%"},
      {"measurement": "Expression level of GRP78 in adipocytes (relative to GAPDH, untreated=1)", "setting": "[8]; steviol 6.25 μg/mL", "result": 4.46},
      {"measurement": "Expression level of GRP78 in adipocytes (relative to GAPDH, untreated=1)", "setting": "[8]; steviol 12.5 μg/mL", "result": 4.18},
      {"measurement": "Expression level of GRP78 in adipocytes (relative to GAPDH, untreated=1)", "setting": "[8]; steviol 25 μg/mL", "result": 4.06},
      {"measurement": "Expression level of GRP78 in adipocytes (relative to GAPDH, untreated=1)", "setting": "[8]; steviol 50 μg/mL", "result": 3.54},
      {"measurement": "cytotoxicity to neuronal cells (in words)", "setting": "[9]; 100 μg/mL steviol", "result": "no particular cytotoxicity to be noted was found"},
      {"measurement": "Relative viable cell count (%)", "setting": "[9]; steviol 0.01 μg/mL", "result": 97.7, "unit": "%"},
      {"measurement": "Relative viable cell count (%)", "setting": "[9]; steviol 0.1 μg/mL", "result": 104.4, "unit": "%"},
      {"measurement": "Relative viable cell count (%)", "setting": "[9]; steviol 1 μg/mL", "result": 93.6, "unit": "%"},
      {"measurement": "Relative viable cell count (%)", "setting": "[9]; steviol 10 μg/mL", "result": 91.4, "unit": "%"},
      {"measurement": "Relative viable cell count (%)", "setting": "[9]; steviol 100 μg/mL", "result": 95.1, "unit": "%"}
    ]}
  ]
}
